Among the data in publication PMC7377239, “Cardiovascular Effects of Polychlorinated Biphenyls and Their Major Metabolites” (Environmental Health Perspectives, 2020) are minimal effective concentration values, retold here.

Where two headings read alike, the source gives them in different places.

The test system of assay [1] is iCell endothelial cells (human iPSC-derived ECs). The assay is described as follows: High-content imaging cytotoxicity in iCell endothelial cells, 24 h. The format is cell-based. The settings on record: Homo sapiens, Endothelial cell, endothelial cells (endo), 24 hr. In short, it runs like this:
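Readouts were vehicle-normalised and fitted to a four-parameter logistic model. POD was set at one SD beyond 0.5% DMSO control means, and 100 µM was assigned when no response was seen. Cells were monolayers of iCell endothelial cells imaged after 24 h compound exposure using nuclear, mitochondrial and calcein dyes.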

The subject of a further assay is HUVECs. The assay is described as follows: High-content imaging cytotoxicity in HUVECs, 24 h. The format is cell-based, human. The settings on record: Homo sapiens, HUVEC, 24 h, HUVEC, 24 hr. In short, it runs like this:
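Point-of-departure values come from four-parameter logistic fits of vehicle-normalized (0.5% DMSO) imaging readouts, cutoff one SD of vehicle means, 100μM where no concentration–response. Cells: HUVEC monolayers, passages 1–5, treated 24 h at 37°C, 5% CO2, then Hoechst 33342/MitoTracker Orange/calcein AM stained, imaged at 10×.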

Take `Oc1ccccc1-c1ccc(Cl)cc1` [2'-OH-PCB 3]: the minimal effective concentration in assay [1] (cyto, read-out: POD endo.cyto.24hr) was found to be 44.3 µM; in assay [1] (mito, read-out: POD endo.mito.24hr), 44.3 µM; in assay [1] (mitoint, read-out: POD endo.mitoint.24hr) it was 100 µM; in assay [1] (nma, read-out: POD endo.nma.24hr), 1.82 µM; in assay [1] (tc, read-out: POD endo.tc.24hr) it was 68.2 µM; in the assay with HUVECs (cyto, read-out: POD huvec.cyto.24hr) it was 5.19 µM. Moreover, the minimal effective concentration in the assay with HUVECs (mito, read-out: POD huvec.mito.24hr) stood at 4.06 µM; in the assay on HUVECs (mitoint, read-out: POD huvec.mitoint.24hr) it was 34.4 µM; in the assay with HUVECs (nma, read-out: POD huvec.nma.24hr), 1.6 µM; in the assay on HUVECs (tc, read-out: POD huvec.tc.24hr), 5.19 µM.
